The target in one series is Bcl-XL (Homo sapiens, UniProt Q07817). Description: Isothermal Titration Calorimetry assay. The format is binding. The conditions noted are these: Kd ratio. Background: In ITC the heat of successive injections is recorded.
Series [1] is described as follows: Chemical stability at different temperatures. In kind it is physicochemical.
In series [2] the test system is B6 transgenic mice overexpressing human Bcl-2 in B-cells. Description: Bcl-2 transgenic mice, spleen weight. In kind it is in vivo, mouse. The settings on record: single i.p. injection at 42 mg/kg, 24 hours.
In series [3] the test system is Bax/Bak double knockout MEF cells (MEF/DKO). Description: FITC-Annexin V/PI assay, Bax/Bak double knockout MEF. In kind it is cell-based, mouse. The settings on record: for toxicity in MEF/DKO cells: 30 μM, FITC-Annexin V/PI.
In the next series the test system is BP3 cell line. The series is described as follows: Apoptosis assay, Annexin V-FITC and propidium iodide, BP3. In kind it is cell-based, human.
In series [4] the test system is MDA-MB-231 breast cancer cells. The conditions noted are these: read-out: EC50 in killing MDA-MB-231 breast cancer cells; cited from earlier work.
Another series concerns the target GST–Bcl-XL ΔTM protein (Homo sapiens, UniProt Q07817). The conditions noted are these: read-out: IC50 binding to Bcl-XL in FPA assays; cited from earlier work.

“Also recorded” adds a separate entry of the source.

Results on 6 molecules are retold here after paper PMC2880850 (Journal of medicinal chemistry, 2010).

Chain of Bcl-XL (Q07817 whole entry): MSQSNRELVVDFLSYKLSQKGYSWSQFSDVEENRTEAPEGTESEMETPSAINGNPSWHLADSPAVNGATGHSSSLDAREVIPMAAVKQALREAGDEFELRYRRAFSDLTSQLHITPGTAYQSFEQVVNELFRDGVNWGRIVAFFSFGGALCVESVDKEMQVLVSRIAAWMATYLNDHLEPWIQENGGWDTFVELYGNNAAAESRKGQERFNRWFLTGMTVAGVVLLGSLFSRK
Chain of GST–Bcl-XL ΔTM protein (Q07817 1-211 limits assumed, stated change not applied): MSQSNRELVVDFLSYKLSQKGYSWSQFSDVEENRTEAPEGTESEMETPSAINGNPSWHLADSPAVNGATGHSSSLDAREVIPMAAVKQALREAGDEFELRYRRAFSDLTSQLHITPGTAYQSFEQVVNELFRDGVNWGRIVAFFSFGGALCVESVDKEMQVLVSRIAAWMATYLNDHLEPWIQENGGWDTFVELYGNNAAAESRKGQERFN

Consider `Cc1cc2c(C(=O)NC[C@H](C)c3ccccc3)c(O)c(O)cc2c(O)c1-c1c(C)cc2c(C(=O)NC[C@H](C)c3ccccc3)c(O)c(O)cc2c1O` (single isomer, unassigned) [Compound 11], for which the “times more potent than other isomers 12–14 in ITC assay” value on Bcl-XL is 4–20 times. In addition, the “inhibition of tumor growth” value in the series with M2182 tumor xenografts (5 mg/kg i.p. every 2 days, nine injections, both flanks) was “near complete inhibition of tumor growth”. For the same molecule, in the series on M2182 tumor xenografts (mouse, in vivo, ip), the tolerability of treatment entry is recorded as “no apparent signs of toxicity”. The chemical stability entry in series [1] is “better chemical stability compared to other compounds (12–14)”. Besides, the spleen weight reduction result in series [2] is recorded as “more than 30%”. Besides, in series [3], the “cytotoxicity against bax−/−bak−/− cells” value is “less cytotoxicity against bax^−/−bak^−/− cells compared to compound 4; also recorded: little cytotoxicity” and the “toxicity in MEF/DKO cells” value is reported as “slight toxicity”.

Turning to `Cc1cc2c(C(=O)NC[C@@H](C)c3ccccc3)c(O)c(O)cc2c(O)c1-c1c(C)cc2c(C(=O)NC[C@@H](C)c3ccccc3)c(O)c(O)cc2c1O` [Compound 14, (R)-1,1′,6,6′,7,7′-hexahydroxy-3,3′-dimethyl-N^5-((S)-2-phenylpropyl)-N^5′-((S)-2-phenylpropyl)-2,2′-binaphthyl-5,5′-dicarboxamide], the “toxicity in MEF/DKO cells” value in series [3] was “almost equally effective in killing both MEF/WT and MEF/DKO”.

Take `CN(C)CC[C@H](CSc1ccccc1)Nc1ccc(S(=O)(=O)NC(=O)c2ccc(N3CCN(Cc4ccccc4-c4ccc(Cl)cc4)CC3)cc2)cc1[N+](=O)[O-]` [ABT-737]: the “apoptosis induction / cytotoxic activity against BP3 cell line” value in the series on BP3 cell line is recorded as “no cytotoxic activity”.

Consider `Cc1cc2c(C(C)C)c(O)c(O)c(C=O)c2c(O)c1-c1c(C)cc2c(C(C)C)c(O)c(O)c(C=O)c2c1O` (single isomer, unassigned) [(+) 1, Gossypol], for which the concentration giving a half-maximal response (EC50) – broadly, the concentration that produces a half-maximal response – in series [4] was about 10000 nM.

In the case of `Cc1cc2c(C(C)C)c(O)c(O)c(C=O)c2c(O)c1-c1c(C)cc2c(C(C)C)c(O)c(O)c(C=O)c2c1O` (single isomer, unassigned) [(−) 1, Gossypol], at GST–Bcl-XL ΔTM protein, the IC50 (usually the concentration needed to halve the response being measured) is 480 nM. Besides, the concentration giving a half-maximal response (EC50) in series [4] is about 2000 nM.

In the case of `Cc1cc2c(C(=O)NC[C@H](C)c3ccccc3)c(O)c(O)cc2c(O)c1-c1c(C)cc2c(C(=O)NC[C@H](C)c3ccccc3)c(O)c(O)cc2c1O` (single isomer, unassigned) [Compound 12], the spleen weight reduction entry in series [2] was “weak in vivo activity”.
